From US12358915B2, “METTL3 inhibitory compounds” (STORM THERAPEUTICS LTD., priority 2019, dated 2025)
Where two headings read alike, the source gives them in different places.

Biological target: T1, METTL3/14 (Homo sapiens, UniProt Q86U44)
T1 construct: The enzyme used was full-length his-tagged METTL3; His; made in house
Assay: METTL3/14 methyltransferase assay (METTL3_14 RFMS, RapidFire mass spectrometry);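 further: recombinant His-tagged METTL3 with FLAG-tagged METTL14 from baculovirus, SAH product quantified by mass spectrometry against isotope-labelled internal standards, 60 min at room temperature, scaled between no-RNA and DMSO-only wells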
Assay type: biochemical

[1] = 5 nM METTL3/14, 0.2 μM RNA substrate, 0.5 μM SAM, lower limit of the assay IC50=5 nM, Compounds 1-62, read-out: METTL3_14 RFMS IC50
[2] = 5 nM METTL3/14, 0.2 μM RNA substrate, 0.5 μM SAM, lower limit of the assay IC50=5 nM, Compounds 63-265, read-out: METTL3_14 RFMS IC50

T1 sequence (Q86U44 whole entry): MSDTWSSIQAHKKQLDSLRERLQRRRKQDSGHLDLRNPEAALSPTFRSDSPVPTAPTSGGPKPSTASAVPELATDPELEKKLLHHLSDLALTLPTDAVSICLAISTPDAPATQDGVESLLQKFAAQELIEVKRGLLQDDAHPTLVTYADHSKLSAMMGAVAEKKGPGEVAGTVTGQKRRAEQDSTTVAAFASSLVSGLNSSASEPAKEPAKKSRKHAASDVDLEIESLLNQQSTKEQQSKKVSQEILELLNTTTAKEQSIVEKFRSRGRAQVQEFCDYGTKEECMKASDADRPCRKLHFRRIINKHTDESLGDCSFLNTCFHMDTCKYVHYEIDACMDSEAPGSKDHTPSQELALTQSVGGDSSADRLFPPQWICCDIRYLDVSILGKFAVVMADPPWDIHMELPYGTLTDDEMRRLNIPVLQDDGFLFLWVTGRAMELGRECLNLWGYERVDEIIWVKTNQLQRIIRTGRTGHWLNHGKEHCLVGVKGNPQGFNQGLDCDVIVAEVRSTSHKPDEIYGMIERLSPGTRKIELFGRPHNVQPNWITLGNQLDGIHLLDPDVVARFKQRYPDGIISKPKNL
T1 sequence (Q9HCE5 whole entry partner): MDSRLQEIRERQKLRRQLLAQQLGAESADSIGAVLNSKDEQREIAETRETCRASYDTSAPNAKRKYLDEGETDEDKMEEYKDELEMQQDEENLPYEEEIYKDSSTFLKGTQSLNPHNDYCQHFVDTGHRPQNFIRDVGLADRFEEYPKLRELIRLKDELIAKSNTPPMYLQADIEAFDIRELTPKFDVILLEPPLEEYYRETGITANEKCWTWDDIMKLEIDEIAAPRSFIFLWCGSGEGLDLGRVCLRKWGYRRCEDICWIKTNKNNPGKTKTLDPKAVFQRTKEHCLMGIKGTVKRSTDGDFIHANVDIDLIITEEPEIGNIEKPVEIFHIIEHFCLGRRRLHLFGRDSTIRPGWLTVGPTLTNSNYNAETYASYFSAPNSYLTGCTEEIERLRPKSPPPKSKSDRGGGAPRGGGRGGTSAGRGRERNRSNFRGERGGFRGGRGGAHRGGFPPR

Row | Compound | IC50 [2] | also measured
1 | c1cc(-n2cc(Cc3cn4ccccc4n3)nn2)c2cn[nH]c2c1 [Example 336, 4-(4-(imidazo[1,2-a]pyridin-2-ylmethyl)-1H-1,2,3-triazol-1-yl)-1H-indazole] | – | IC50 (5 nM METTL3/14, 0.2 μM RNA substrate, 0.5 μM SAM, lower limit of the assay IC50=5 nM, Compounds 266-351, read-out: METTL3_14 RFMS IC50): 4160 nM
2 | O=C(NCc1cn2cc(NCc3cccnc3)ccc2n1)c1cccc2[nH]ncc12 [Compound 32, N-[(6-{[(pyridin-3-yl)methyl]amino}imidazo[1,2-a]pyridin-2-yl)methyl]-1H-indazole-4-carboxamide] | – | IC50 [1]: 7340 nM
3 | O=C(NCc1cn2cc(CNCc3cncs3)ccc2n1)c1cc(=O)n2ccccc2n1 [Compound 99, 4-oxo-N-{[6-({[(1,3-thiazol-5-yl)methyl]amino}methyl)imidazo[1,2-a]pyridin-2-yl]methyl}-4H-pyrido[1,2-a] pyrimidine-2-carboxamide] | 318 nM | –
4 | O=C(NCc1cn2cc(CNC[C@@H]3CCCO3)ccc2n1)c1cc(=O)n2ccccc2n1 [Compound 117, 4-oxo-N-({6-[({[(2S)-oxolan-2-yl]methyl}amino)methyl]imidazo[1,2-a]pyridin-2-yl}methyl)-4H-pyrido[1,2-a] pyrimidine-2-carboxamide] | 83.7 nM | –
5 | COC(=O)C(NCc1ccc2nc(CNC(=O)c3cc(=O)n4ccccc4n3)cn2c1)C(C)C (centres unmarked) [Compound 123, methyl 3-methyl-2-[({2-[({4-oxo-4H-pyrido[1,2-a]pyrimidin-2-yl}formamido)methyl]imidazo [1,2-a]pyridin-6-yl}methyl)amino] butanoate] | 332 nM | –
6 | Cc1ccc2nc(CNC(=O)c3ccc4[nH]ncc4c3)cn2c1 [Compound 20, N-({6-methylimidazo[1,2-a]pyridin-2-yl}methyl)-1H-indazole-5-carboxamide] | – | IC50 [1]: 8410 nM
7 | O=C(NCc1cn2cc(CO)ccc2n1)c1cccc2[nH]ncc12 [Compound 42] | – | IC50 [1]: 6260 nM
8 | O=C(NCc1cn2cc(CNCC3CC3)ccc2n1)c1cc(=O)n2ccccc2n1 [Compound 84, N-[(6-{[(cyclopropyl-methyl)amino]methyl}imidazo [1,2-a]pyridin-2-yl)methyl]-4-oxo-4H-pyrido [1,2-a]pyrimidine-2-carboxamide] | 36.5 nM | –
9 | O=C(NCc1cn2cc(CNCc3ccccc3)ccc2n1)c1cc(=O)n2ccccc2n1 [Compound 54, N-({6-[(benzylamino)methyl]imidazo[1,2-a]pyridin-2-yl}methyl)-4-oxo-4H-pyrido[1,2-a]pyrimidine-2-carboxamide] | – | IC50 (primary enzyme screen, inhibition of RNA methyltransferase activity, lower limit of the assay is IC50=5 nM, read-out: IC50): 16 nM
10 | Cc1ccc2nc(CNC(=O)c3cc(Br)cc4[nH]ncc34)cn2c1 [Compound 10, 6-bromo-N-({6-methylimidazo[1,2-a]pyridin-2-yl}methyl)-1H-indazole-4-carboxamide] | – | IC50 [1]: 1610 nM

More lines, main results first:

Row | IC50 [2] | Compound | also measured
11 | 136 nM | CC1(C)CCC(CNCc2ccc3nc(CNC(=O)c4cc(=O)n5ccccc5n4)cn3c2)O1 (centres unmarked) [Compound 143, N-{[6-({[(5,5-dimethyloxolan-2-yl)methyl]amino}methyl)imidazo[1,2-a]pyridin-2-yl]methyl}-4-oxo-4H-pyrido[1,2-a] pyrimidine-2-carboxamide] | –
12 | 179 nM | O=C(NCc1cn2cc(CNCC3CCCCC3)ccc2n1)c1cccc2[nH]ncc12 [Compound 182, N-[(6-{[(cyclohexyl-methyl)amino]methyl}imidazo[1,2-a]pyridin-2-yl)methyl]-1H-indazole-4-carboxamide] | –
13 | 4440 nM | OCc1ccc2nc(Cn3cc(-c4cncc5[nH]ncc45)nn3)cn2c1 [Example 257, {2-[(4-{1H-pyrazolo[3,4-c]pyridin-4-yl}-1H-1,2,3-triazol-1-yl)methyl]imidazo[1,2-a]pyridin-6-yl}methanol] | –
14 | 100 nM | CC(C)(C)[C@@H]1COC[C@H](c2ccc3nc(CNC(=O)c4cc(=O)n5ccccc5n4)cn3c2)N1 [Example 229, N-({6-[(3S,5R)-5-tert-butylmorpholin-3-yl]imidazo[1,2-a]pyridin-2-yl}methyl)-4-oxo-4H-pyrido[1,2-a]pyrimidine-2-carboxamide] | –
